# Experiments:
# Thromboxane A2 receptor = target: T1, Thromboxane A2 receptor (Homo sapiens, UniProt P21731); experiment: Tested for binding affinity against platelet TXA2 receptor in washed human platelets using [125I]BOP as radioligand
# T1 sequence (P21731 whole entry): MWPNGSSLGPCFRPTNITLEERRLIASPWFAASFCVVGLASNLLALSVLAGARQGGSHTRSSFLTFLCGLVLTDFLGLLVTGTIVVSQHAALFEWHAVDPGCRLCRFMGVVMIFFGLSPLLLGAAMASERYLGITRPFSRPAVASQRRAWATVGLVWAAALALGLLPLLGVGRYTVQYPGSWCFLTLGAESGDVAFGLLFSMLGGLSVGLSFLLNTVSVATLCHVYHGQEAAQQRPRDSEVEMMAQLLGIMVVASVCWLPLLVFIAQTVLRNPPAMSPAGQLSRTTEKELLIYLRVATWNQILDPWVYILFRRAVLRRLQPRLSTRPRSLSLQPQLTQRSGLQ
# Homo sapiens = species: Homo sapiens; experiment: Tested for concentration required for antagonism of U-46,619-Induced Human Platelet Aggregation; type: functional
Kd (Thromboxane A2 receptor),IC50 (Homo sapiens),SMILES
67 nM,1000 nM,O=C(O)CCC/C=C/CCCNS(=O)(=O)c1ccccc1
7.5 nM,150 nM,O=C(O)CCC/C=C\C[C@H]1CCC[C@@H]1NS(=O)(=O)c1ccccc1
2.9 nM,32 nM,O=C(O)CCC/C=C\CC1C2CCC(C2)C1NS(=O)(=O)c1ccccc1 (stereo not given)
36 nM,250 nM,O=C(O)CCC/C=C\C[C@H]1CCC[C@H]1NS(=O)(=O)c1ccccc1
172 nM,1500 nM,O=C(O)CCCCCCCCNS(=O)(=O)c1ccccc1

# — ChEMBL document CHEMBL1125980, “Structural homologies among thromboxane (TXA2) receptor antagonists: Minimal pharmacophoric requirements for high affinity interaction with TXA2 receptors” (Bioorg Med Chem Lett, 1991)
